The results in this text go back to ChEMBL document CHEMBL1909046, “DrugMatrix in vitro pharmacology data”.

Assay [1] in a line: DRUGMATRIX: Tumor Necrosis Factor (TNF), Non-Selective radioligand binding (ligand: [125I] TNF-alpha). The assay is classed as cell membranes, Membrane. To be noted: u-937; Not Active = under 50% inhibition at 10 µM.
Assay [2] in a line: DRUGMATRIX: Phosphodiesterase PDE4 enzyme inhibition (substrate: [3H]cAMP + cAMP). The settings on record: u-937, Not Active = under 50% inhibition at 10 µM.
For assay [3], the target named is cGMP-specific 3',5'-cyclic phosphodiesterase (Homo sapiens, UniProt O76074). The assay is described as follows: DRUGMATRIX: Phosphodiesterase PDE5 enzyme inhibition (substrate: [3H]cGMP + cGMP). In kind it is tissue-based, Platelet. To be noted: platelet; Not Active = under 50% inhibition at 10 µM.
For assay [4], the target named is Mitogen-activated protein kinase 3 (Homo sapiens, UniProt P27361). The assay is described as follows: DRUGMATRIX: Protein Serine/Threonine Kinase, ERK1 enzyme inhibition (substrate: Myelin Basic Protein). Details: species or system Escherichia coli. To be noted: Not Active = under 50% inhibition at 10 µM.
The target of assay [5] is Receptor tyrosine-protein kinase erbB-2 (Homo sapiens, UniProt P04626). The assay is classed as cell-based. The settings on record: insect cells.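 Further: inhibition of HER2 kinase enzyme activity, measured with Poly(Glu:Tyr) as the phosphorylation substrate; in other assays of this panel Not Active means under 50% inhibition at 10 µM.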
The target in assay [6] is T1, Receptor-type tyrosine-protein phosphatase C (Homo sapiens, UniProt P08575).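 Further: inhibition of CD45 enzyme activity measured using DiFMUP as substrate; in other assays of this panel Not Active means under 50% inhibition at 10 µM.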
T1 sequence (P08575 whole entry): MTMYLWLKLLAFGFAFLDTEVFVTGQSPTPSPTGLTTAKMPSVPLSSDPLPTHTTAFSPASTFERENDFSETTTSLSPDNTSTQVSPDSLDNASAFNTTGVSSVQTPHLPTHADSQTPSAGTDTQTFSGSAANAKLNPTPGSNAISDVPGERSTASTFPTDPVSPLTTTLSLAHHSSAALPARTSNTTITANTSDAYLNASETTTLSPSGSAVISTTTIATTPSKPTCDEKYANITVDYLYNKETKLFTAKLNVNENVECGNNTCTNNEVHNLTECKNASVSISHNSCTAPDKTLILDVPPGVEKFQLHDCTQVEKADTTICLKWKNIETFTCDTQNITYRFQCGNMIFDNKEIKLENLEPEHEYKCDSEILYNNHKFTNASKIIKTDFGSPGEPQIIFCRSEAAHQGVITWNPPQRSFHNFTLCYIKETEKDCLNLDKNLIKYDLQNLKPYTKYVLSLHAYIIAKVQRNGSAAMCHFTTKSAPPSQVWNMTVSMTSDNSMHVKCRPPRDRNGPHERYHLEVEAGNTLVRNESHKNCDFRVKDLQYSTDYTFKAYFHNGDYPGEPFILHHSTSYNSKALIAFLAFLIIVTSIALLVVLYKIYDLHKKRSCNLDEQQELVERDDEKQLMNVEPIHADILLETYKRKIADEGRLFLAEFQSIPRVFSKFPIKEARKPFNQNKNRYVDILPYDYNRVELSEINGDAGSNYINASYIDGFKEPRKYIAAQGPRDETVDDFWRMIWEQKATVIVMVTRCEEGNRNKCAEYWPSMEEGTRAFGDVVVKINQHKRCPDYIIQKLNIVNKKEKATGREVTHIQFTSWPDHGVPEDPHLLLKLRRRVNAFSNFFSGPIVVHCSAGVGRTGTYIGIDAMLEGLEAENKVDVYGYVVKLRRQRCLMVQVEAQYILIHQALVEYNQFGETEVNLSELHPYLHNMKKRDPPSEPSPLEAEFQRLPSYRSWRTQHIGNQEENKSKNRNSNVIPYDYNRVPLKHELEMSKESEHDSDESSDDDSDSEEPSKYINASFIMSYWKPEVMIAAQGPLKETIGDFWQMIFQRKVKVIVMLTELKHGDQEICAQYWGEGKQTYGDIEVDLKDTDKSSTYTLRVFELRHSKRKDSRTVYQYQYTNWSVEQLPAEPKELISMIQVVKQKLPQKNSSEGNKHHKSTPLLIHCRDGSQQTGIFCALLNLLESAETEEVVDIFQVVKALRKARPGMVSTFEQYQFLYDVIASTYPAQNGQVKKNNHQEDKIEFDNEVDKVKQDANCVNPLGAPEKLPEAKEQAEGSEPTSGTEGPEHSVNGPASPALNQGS
Also on record: species or system Escherichia coli.

The target in assay [7] is T2, 5-hydroxytryptamine receptor 1A (Rattus norvegicus, UniProt P19327). Further: in other assays of this panel Not Active means under 50% inhibition at 10 µM.
T2 sequence (P19327 whole entry): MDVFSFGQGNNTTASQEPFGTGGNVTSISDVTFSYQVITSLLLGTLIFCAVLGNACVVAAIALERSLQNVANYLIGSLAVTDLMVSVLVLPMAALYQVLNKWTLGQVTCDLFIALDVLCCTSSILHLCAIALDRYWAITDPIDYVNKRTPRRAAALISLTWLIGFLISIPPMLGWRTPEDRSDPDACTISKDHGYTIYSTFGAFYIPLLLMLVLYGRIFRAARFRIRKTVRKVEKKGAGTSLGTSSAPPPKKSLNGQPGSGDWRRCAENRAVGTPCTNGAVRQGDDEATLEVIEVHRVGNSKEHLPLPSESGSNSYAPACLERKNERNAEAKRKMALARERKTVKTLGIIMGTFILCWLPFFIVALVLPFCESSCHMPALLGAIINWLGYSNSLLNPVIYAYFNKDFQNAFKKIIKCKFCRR
The assay is classed as cell membranes, CHO-K1, Membrane. To be noted: cho-k1.

pIC50: −log10 of the molar value.

Sequence of Receptor tyrosine-protein kinase erbB-2 (P04626 whole entry): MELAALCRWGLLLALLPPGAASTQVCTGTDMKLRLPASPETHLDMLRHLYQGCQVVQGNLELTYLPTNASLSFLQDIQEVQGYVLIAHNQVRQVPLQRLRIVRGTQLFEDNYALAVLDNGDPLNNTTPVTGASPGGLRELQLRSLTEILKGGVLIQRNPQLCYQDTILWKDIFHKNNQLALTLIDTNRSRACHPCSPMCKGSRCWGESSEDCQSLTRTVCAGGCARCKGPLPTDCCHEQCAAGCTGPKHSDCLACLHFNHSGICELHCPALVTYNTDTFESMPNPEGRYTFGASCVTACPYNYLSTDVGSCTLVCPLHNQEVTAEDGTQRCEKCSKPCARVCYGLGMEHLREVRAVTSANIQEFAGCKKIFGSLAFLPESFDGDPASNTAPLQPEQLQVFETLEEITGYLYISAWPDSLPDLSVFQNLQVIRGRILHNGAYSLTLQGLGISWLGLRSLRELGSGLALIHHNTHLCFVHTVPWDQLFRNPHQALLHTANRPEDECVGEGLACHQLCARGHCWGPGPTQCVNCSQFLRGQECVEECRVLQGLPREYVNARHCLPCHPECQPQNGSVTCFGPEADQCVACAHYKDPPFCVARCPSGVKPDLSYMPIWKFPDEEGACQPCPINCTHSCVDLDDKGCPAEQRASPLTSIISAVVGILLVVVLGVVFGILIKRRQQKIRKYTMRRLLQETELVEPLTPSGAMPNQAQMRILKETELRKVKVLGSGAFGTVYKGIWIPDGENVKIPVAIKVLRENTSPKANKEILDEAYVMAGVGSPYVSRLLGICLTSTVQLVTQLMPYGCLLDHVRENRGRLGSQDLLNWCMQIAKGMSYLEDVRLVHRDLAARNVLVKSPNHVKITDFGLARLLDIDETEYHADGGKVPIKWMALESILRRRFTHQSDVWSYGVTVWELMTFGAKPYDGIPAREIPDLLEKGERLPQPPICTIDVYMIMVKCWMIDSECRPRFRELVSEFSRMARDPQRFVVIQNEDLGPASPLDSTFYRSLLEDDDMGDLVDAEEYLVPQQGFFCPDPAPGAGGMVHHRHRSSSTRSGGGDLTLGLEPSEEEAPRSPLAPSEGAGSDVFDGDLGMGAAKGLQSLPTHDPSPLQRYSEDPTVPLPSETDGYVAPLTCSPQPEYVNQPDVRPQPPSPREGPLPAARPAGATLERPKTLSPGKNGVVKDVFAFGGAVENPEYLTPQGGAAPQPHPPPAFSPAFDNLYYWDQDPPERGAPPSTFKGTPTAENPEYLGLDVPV
Sequence of Mitogen-activated protein kinase 3 (P27361 whole entry): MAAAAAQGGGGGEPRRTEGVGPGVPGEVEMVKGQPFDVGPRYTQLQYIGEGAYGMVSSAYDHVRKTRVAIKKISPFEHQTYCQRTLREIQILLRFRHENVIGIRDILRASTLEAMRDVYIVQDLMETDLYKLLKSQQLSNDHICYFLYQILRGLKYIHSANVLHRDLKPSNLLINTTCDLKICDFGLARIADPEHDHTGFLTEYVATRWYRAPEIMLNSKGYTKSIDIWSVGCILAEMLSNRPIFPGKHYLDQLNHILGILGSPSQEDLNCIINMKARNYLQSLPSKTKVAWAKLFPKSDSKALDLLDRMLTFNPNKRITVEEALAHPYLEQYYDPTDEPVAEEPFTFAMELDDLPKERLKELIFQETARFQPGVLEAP

As to `COC(=O)Nc1nc2ccc(C(=O)c3ccccc3)cc2[nH]1` [MEBENDAZOLE], the IC50 entry in assay [1], in assay [2], in assay [3], in assay [4], in assay [5] and in assay [6] was “Not Active” in each case. For the same molecule, in assay [7], the IC50 entry is “Not Active”. For the same molecule, the Ki result in assay [1] and in assay [2] was “Not Active” each time.
For `Cc1ccnc(NS(=O)(=O)c2ccc(N)cc2)n1` [SULFAMERAZINE], the IC50 entry in assay [1], in assay [2], in assay [3], in assay [4], in assay [5] and in assay [6] was “Not Active” in each case. For the same molecule, in assay [7], the IC50 entry is on record as “Not Active”. In addition, the Ki entry in assay [1] and in assay [2] was “Not Active” in each case.
Regarding `Cc1cccc(C)c1NC(=O)C(C)N` (stereo not given) [TOCAINIDE], the IC50 result in assay [1], in assay [2], in assay [3], in assay [4], in assay [5] and in assay [6] was “Not Active” each time. Besides, in assay [7], the IC50 result is “Not Active”. Besides, the Ki entry in assay [1] and in assay [2] was “Not Active” throughout.
For `CC#C[C@]1(O)CC[C@H]2[C@@H]3CCC4=CC(=O)CCC4=C3[C@@H](c3ccc(N(C)C)cc3)C[C@@]21C` [MIFEPRISTONE], the IC50 entry in assay [1], in assay [2], in assay [3], in assay [4], in assay [5] and in assay [6] was “Not Active” in each case. Further, the IC50 result in assay [7] is on record as “Not Active”. The Ki result in assay [1] and in assay [2] was “Not Active” in each case.
As to `C[C@]12CCC(=O)C[C@@H]1CC[C@@H]1[C@@H]2CC[C@]2(C)[C@@H](O)CC[C@@H]12` [STANOLONE], the IC50 entry in assay [1], in assay [2], in assay [3], in assay [4], in assay [5] and in assay [6] was “Not Active” throughout. The IC50 entry in assay [7] is on record as “Not Active”. Further, the Ki result in assay [1] and in assay [2] was “Not Active” in each case.
For the molecule `C1CCN2C[C@@H]3C[C@@H](CN4CCCC[C@@H]34)[C@H]2C1` [SPARTEINE], the IC50 result in assay [1], in assay [2], in assay [3], in assay [4], in assay [5] and in assay [6] was “Not Active” in each case. Also, in assay [7], the IC50 result is given as “Not Active”. Also, the Ki result in assay [1] and in assay [2] was “Not Active” each time.
For `CO[C@@H]1[C@@H](OC)[C@H](C)[C@@](O)(CC(=O)O)O[C@H]1[C@H](C)[C@H]1O[C@@]2(CC[C@@](C)([C@H]3CC[C@@](C)([C@@H]4O[C@@H]([C@H]5O[C@](C)(O)[C@H](C)C[C@@H]5C)C[C@@H]4O[C@@H]4C[C@H](OC)[C@@H](OC)[C@H](C)O4)O3)O2)C[C@H](O)[C@H]1C.N` [MADURAMICIN], the IC50 entry in assay [1], in assay [2], in assay [3], in assay [4], in assay [5] and in assay [6] was “Not Active” each time. For the same molecule, in assay [7], the IC50 result is reported as “Not Active”. Also, the Ki result in assay [1] and in assay [2] was “Not Active” each time.
With `CC(N)C12CC3CC(CC(C3)C1)C2` (stereo not given) [RIMANTADINE], the IC50 result in assay [1], in assay [2], in assay [3], in assay [4], in assay [5] and in assay [6] was “Not Active” each time. Moreover, the IC50 entry in assay [7] was “Not Active”. Besides, the Ki result in assay [1] and in assay [2] was “Not Active” in each case.
What is called pIC50 is −log10 of the IC50, conventionally taken in molar units. On to `CCN(CC)C(=S)SSC(=S)N(CC)CC`, for which the IC50 entry in assay [1], in assay [3], in assay [5], in assay [6] and in assay [7] was “Not Active” each time. The Ki result in assay [1] is “Not Active”. Moreover, the results for the pIC50 in assay [2] (read-out: IC50) and in assay [4] (read-out: IC50) were 5.32 and 5.82, respectively.
